Reference: article PMC7061341, “Detection of the in vitro modulation of Plasmodium falciparum Arf1 by Sec7 and ArfGAP domains using a colorimetric plate-based assay” (Scientific Reports, 2020)

Legend:
PfArfGAP1 = molecular target: T1, PfArfGAP1 (Plasmodium falciparum, UniProt Q8I4Y5); experiment: plate-based GST-GGA3 GAT binding GAP assay; confirmed by tryptophan fluorescence; type: biochemical
T1 construct: gene PF3D7_1244600; GAP domain, amino acids 1–161; with PfArf1 (NΔ17, GTP-loaded)

[1] = molecular target: ^NΔ17PfArf1 (His-tagged P. falciparum Arf1 minus the N-terminal 17 amino acids) (Plasmodium falciparum) (UniProt Q7KQL3)
ARNO = molecular target: T2, ARNO (Homo sapiens, UniProt Q99418); experiment: plate-based GST-GGA3 GAT binding nucleotide exchange assay, […] compound; type: biochemical
T2 construct: gene CYTH2; Sec7 domain, amino acids 51–253; with Arf1 (NΔ17HsArf1 or NΔ17PfArf1, GDP-loaded)
T2 sequence (Q99418 51-253): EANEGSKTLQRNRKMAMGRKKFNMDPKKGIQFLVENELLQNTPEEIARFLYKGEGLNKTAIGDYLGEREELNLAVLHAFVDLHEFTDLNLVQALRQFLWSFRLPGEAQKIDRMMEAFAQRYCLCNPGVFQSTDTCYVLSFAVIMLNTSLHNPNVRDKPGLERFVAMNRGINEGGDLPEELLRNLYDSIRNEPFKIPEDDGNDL
T2 sequence (P84077 18-181 partner): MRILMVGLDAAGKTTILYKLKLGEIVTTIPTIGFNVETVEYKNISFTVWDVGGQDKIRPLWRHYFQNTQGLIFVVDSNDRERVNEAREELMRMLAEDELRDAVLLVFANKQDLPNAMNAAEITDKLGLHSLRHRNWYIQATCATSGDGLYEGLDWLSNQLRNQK

## CC1(C(=O)Nc2cccc3cccnc23)CCN1C(=O)CCC1CCCC1 (stereo not drawn) [Chem1099]
PfArfGAP1
  IC50: 4700 nM

## PfArfGAP1^GAP (putative GAP domain of P. falciparum ArfGAP1) (domain or fragment)
[1]
  half-maximal GAP activity (EC50): deactivation of 1 µM ^NΔ17PfArf1-GTP by three-fold serial dilutions (0.5–0.002 µM) of the GAP domain, read by the GST-GGA3^GAT binding assay: 21 nM

## SecinH3
ARNO
  % inhibition at 50 μM: 93
